{"source": "patent US20130065227A1", "about": "“METHODS OF INCREASING MACROPINOCYTOSIS IN CANCER CELLS” (priority 2010, published 2013)", "key": {"Hs27 [1]": {"system": "Hs27", "experiment": "Uptake of AS1411 by macropinocytosis (MP)", "format": "cell-based, human", "details": "Non-cancer, skin fibroblasts", "method": "FIG. 2 are graphs showing that AS1411 is internalized by different endocytic mechanisms in DU145 cancer cells and in non-malignant Hs27 cells. DU145 or Hs27 cells were plated 18 h before uptake analysis. Cells were pre-treated as described with inhibitor (gray histogram) or the corresponding vehicle control (black histogram) before addition of 10 μM FL-AS1411 and incubation at 37° C. for 2 h. After incubation, cells were harvested and analyzed by flow cytometry. Pre-treatment conditions were at 37° C. with: (Panel A) 5 μM Cytochalasin D for 30 min; (Panel B) 80 μM Dynasore for 30 min; or (Panel C) 3 mM amiloride for 1 h. All experiments were repeated at least three times and representative data are shown. Solid gray histograms represent background autofluorescence of unstained cells.\nTo analyze uptake of the oligodeoxynucleotides or dextran-10K (macropinocytic marker) by flow cytometry, 2×10^5 cells in fresh supplemented culture medium (2.5 ml) were plated into 6-well plates for 18 h. After complete adhesion, the cells were incubated with 5′-FAM tagged oligodeoxynucleotides or Alexa Fluor 488 tagged dextran-10K and incubated as indicated in the Description of the Drawings. Cells were washed once with ice-cold PBS, incubated with 1 μg/ml 7-amino-actinomycin D (7-AAD) for 5 min on ice or 1 μg/ml propidium iodide (PI), and washed twice with ice-cold PBS. […]"}, "MCF10A [2]": {"system": "MCF10A", "experiment": "Uptake of AS1411 by macropinocytosis (MP)", "format": "cell-based, human", "details": "Non-cancer, breast epithelial", "excerpt": "(§1) It has recently been discovered that AS1411 can stimulate macropinocytosis (MP) in cancer cells and this finding was verified by several different methods and in multiple cancer cell lines (Table 1)."}, "MDA-MB-231": {"system": "MDA-MB-231", "experiment": "Stimulation of macropinocytosis (dextran uptake)", "format": "cell-based", "details": "MDA-MB-231; Cancer, breast", "method": "(§2) FIG. 10 are graphs showing the stimulation of macropinocytosis by GROs. Breast carcinoma cells (MDA-MB-231, MCF-7) or non-malignant breast epithelial cells (MCF10A) cells were plated 18 hr before treatment with 10 μM tAS1411 or 10 μM tCRO or water in complete DMEM medium at 37° C. for 48 hr or 72 hr. After treatment, cell medium was changed for fresh complete medium containing 0.2 mg/ml dextran-10K labeled with Alexa Fluor 488 and cells were incubated for 30 min at 37° C. Cells were then incubated on ice with 1 mg/ml PI in PBS, harvested, and analyzed by flow cytometry. Uptake was normalized to no pre-treatment controls and bars show the mean and SE of three independent experiments.\n(§3) To analyze uptake of the oligodeoxynucleotides or dextran-10K (macropinocytic marker) by flow cytometry, 2×10^5 cells in fresh supplemented culture medium (2.5 ml) were plated into 6-well plates for 18 h. After complete adhesion, the cells were incubated with 5′-FAM tagged oligodeoxynucleotides or Alexa Fluor 488 tagged dextran-10K and incubated as indicated in the Description of the Drawings. Cells were washed once with ice-cold PBS, incubated with 1 μg/ml 7-amino-actinomycin D (7-AAD) for 5 min on ice or 1 μg/ml propidium iodide (PI), and washed twice with ice-cold PBS. Cells were then treated with 0.01% trypsin/0.5 mM EDTA (300 μl) for 3 min prior addition 3 ml supplemented culture medium. The cells were then centrifuged and resuspended in 0.5 ml of 1% paraformaldehyde for analysis by flow cytometry using a FACScalibur cytometer (BD Biosciences, Mountain View, Calif.).\n(§4) AS1411 causes a change in cancer cell morphology that is characterized by vacuolization, irregular nuclei, and swollen cells (Xu et al., 2001, J. Biol. Chem., 276:43221-30). Therefore, the effect of AS1411 on macropinocytosis in DU145 cells and non-malignant Hs27 cells was investigated. […] As in all of the flow cytometry experiments, cells were gated to exclude permeable cells, discounting the possibility that this increase was due to cell death. […] One implication of the finding that AS1411 causes hyperstimulation of macropinocytosis is that treatment of AS1411 might actually promote its own internalization by cancer cells. To test this idea, DU145 cells were pre-treated for 24 h with tAS1411, then added FL-AS1411 and evaluated uptake after an additional 2 h using flow cytometry. […] This idea is not necessarily inconsistent with the time course data shown in FIG. 1A because the fluorescence signal may decrease over time for a number of reasons, including exocytosis of the ligand and fluorescence quenching due to protein binding or environmental factors (the fluorophore used for flow cytometry is particularly sensitive to acidic environments). […]"}, "MCF7": {"system": "MCF7", "experiment": "Stimulation of macropinocytosis (dextran uptake)", "format": "cell-based", "details": "MCF7; Cancer, breast", "method": "as §2, §3, §4"}, "DU145 cells": {"system": "DU145 cells", "experiment": "Uptake of fluorescently labeled duplex siRNA after AS1411 pre-treatment", "format": "cell-based", "details": "10 μM, 48 h", "excerpt": "FIG. 18 is a graph showing the uptake of siRNA in the presence of AS1411.\nFurthermore, due to the unique properties of MPsomes, delivery by MP leads to increased functional activity. Thus, treatment with AS1411, followed by administration of an anticancer siRNA, for example, leads to a synergistic increase in anticancer effects without harming normal cells. Another strategy to potentiate the effects of AS1411 is to combine it with agents that promote MP and activation of Rac. This leads to increased macropinocytic uptake of AS1411 and/or enhanced methuosis."}, "Hs27 [3]": {"system": "Hs27", "experiment": "Cell response to AS1411", "format": "cell-based, human", "details": "Non-cancer, skin fibroblasts", "excerpt": "as §1"}, "MCF10A [4]": {"system": "MCF10A", "experiment": "Cell response to AS1411", "format": "cell-based, human", "details": "Non-cancer, breast epithelial", "excerpt": "as §1"}, "most cancer cells tested": {"system": "most cancer cells tested", "experiment": "Cell death on continuous exposure", "format": "cell-based", "details": "10 μM AS1411", "method": "As described above, it is known that AS1411 can induce an unusual form of cell death in cancer cells. It was previously shown that G-rich oligonuclotides could induce cell death selectively in cancer cells compared to non-malignant cells, but it was noted that the morphology of the cells was inconsistent with death by apoptosis. The timing of cell death was also quite unusual, with continuous exposure (at 10 μM AS1411) for 7 days or more required to cause complete cell death for most cancer cells tested. […] However, cell death was also dose-dependent and occurred within hours in DU145 cells treated with 40 μM AS1411. Based on the various published reports, the cell death mechanism in U937 leukemia cells was investigated, and it was confirmed that cell death was not by apoptosis (FIG. 14 A-D). […] Although the same detailed studies of cell death have not been carried out in other cancer cell lines, it is consistently seen that AS1411-responsive cells die with a characteristic morphology (enlarged and vacuolated cells) without evidence of apoptosis."}, "RWPE1": {"system": "RWPE1", "experiment": "Stimulation of macropinocytosis (dextran uptake)", "format": "cell-based", "details": "Non-cancer, prostate epithelial", "excerpt": "as §1"}, "RCC4": {"system": "RCC4", "experiment": "Stimulation of macropinocytosis (dextran uptake)", "format": "cell-based", "details": "Cancer, renal cell", "excerpt": "as §1"}, "A549": {"system": "A549", "experiment": "Stimulation of macropinocytosis (dextran uptake)", "format": "cell-based", "details": "Cancer, non-small cell lung", "excerpt": "as §1"}, "CHO": {"system": "CHO", "experiment": "Stimulation of macropinocytosis (dextran uptake)", "format": "cell-based", "details": "Non-cancer, hamster ovary", "excerpt": "as §1"}, "SK-N-DZ": {"system": "SK-N-DZ", "experiment": "Stimulation of macropinocytosis (dextran uptake)", "format": "cell-based", "details": "Cancer, neuroblastoma", "excerpt": "as §1"}, "BEAS2B": {"system": "BEAS2B", "experiment": "Stimulation of macropinocytosis (dextran uptake)", "format": "cell-based", "details": "Non-cancer, lung epithelial", "excerpt": "as §1"}}}
{"substance": "5′-d(GGTGGTGGTGGTTGTGGTGGTGGTGG) [AS1411]", "values": [{"measurement": "Update by MP?", "setting": "Hs27 [1]", "value": "No"}, {"measurement": "Update by MP?", "setting": "MCF10A [2]", "value": "Low"}, {"measurement": "Stimulate MP?", "setting": "MDA-MB-231", "value": "Yes"}, {"measurement": "Stimulate MP?", "setting": "MCF7", "value": "Yes"}, {"measurement": "siRNA delivery after pre-treatment", "setting": "DU145 cells", "value": "substantial increase in siRNA delivery"}, {"measurement": "Cells respond?", "setting": "Hs27 [3]", "value": "No"}, {"measurement": "Cells respond?", "setting": "MCF10A [4]", "value": "No"}, {"measurement": "continuous exposure required to cause complete cell death", "setting": "most cancer cells tested", "value": "≥ 7", "unit": "days"}, {"measurement": "Stimulate MP?", "setting": "RWPE1", "value": "No"}, {"measurement": "Stimulate MP?", "setting": "RCC4", "value": "Yes"}, {"measurement": "Stimulate MP?", "setting": "A549", "value": "Yes"}, {"measurement": "Stimulate MP?", "setting": "CHO", "value": "No"}, {"measurement": "Stimulate MP?", "setting": "SK-N-DZ", "value": "Yes"}, {"measurement": "Stimulate MP?", "setting": "BEAS2B", "value": "No"}]}
